# Measurements reported in patent US12077503B2, “Substituted cyclic amides and their use as herbicides” (FMC CORPORATION, priority 2015, dated 2024).
# What was measured:
# Assay type in all cases: in vivo
# [1] = tested on: barnyardgrass (Echinochloa crus-galli); assay: Test G Pre-Emergence Protocol; conditions: Echinochloa crus-galli, pre-emergence, 312 h, evaluated after 13 days; for pest or weed control at 15.625 g/ha: 15.625 g ai/ha, read-out: Barnyard grass damage rating (100=total damage to plant; 0=no damage to plant); for pest or weed control at 62.5 g/ha: 62.5 g ai/ha, 100=total damage to plant, 0=no damage to plant, read-out: plant damage rating, Barnyardgrass; for pest or weed control at 250 g/ha: 250 g ai/ha, read-out: Barnyardgrass damage rating (100=total damage to plant; 0=no damage to plant)
# Procedure, shortened: (§1)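 Test compound in 0.5% Tween 20 acetone/water (50:50) was applied at three rates (15.625, 62.5, 250 g/ha) to soil sown one day earlier. After 13 days plants were scored for injury, where 0 means unaffected and 100 means completely damaged.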
# [2] = tested on: giant foxtail (Setaria faberi); assay: Test G Pre-Emergence Protocol; conditions: Setaria faberi, pre-emergence, 312 h, evaluated after 13 days; for pest or weed control at 15.625 g/ha: 15.625 g ai/ha; for pest or weed control at 15.625 g/ha / pest or weed control at 250 g/ha: read-out: Foxtail, Giant damage rating (100=total damage to plant; 0=no damage to plant); for pest or weed control at 62.5 g/ha: 62.5 g ai/ha, 100=total damage to plant, 0=no damage to plant, read-out: plant damage rating, Foxtail, Giant; for pest or weed control at 250 g/ha: 250 g ai/ha
# Procedure, shortened: as §1
# [3] = tested on: velvetleaf (Abutilon theophrasti); assay: Test G Pre-Emergence Protocol; conditions: Abutilon theophrasti, pre-emergence, 312 h, evaluated after 13 days; for pest or weed control at 15.625 g/ha: 15.625 g ai/ha; for pest or weed control at 15.625 g/ha / pest or weed control at 250 g/ha: read-out: Velvetleaf damage rating (100=total damage to plant; 0=no damage to plant); for pest or weed control at 62.5 g/ha: 62.5 g ai/ha, 100=total damage to plant, 0=no damage to plant, read-out: plant damage rating, Velvetleaf; for pest or weed control at 250 g/ha: 250 g ai/ha
# Procedure, shortened: as §1
# [4] = tested on: ivy-leaved morning glory (Ipomoea hederacea); assay: Test G Pre-Emergence Protocol; conditions: Ipomoea, pre-emergence, 312 h, evaluated after 13 days; for pest or weed control at 15.625 g/ha: 15.625 g ai/ha, read-out: Morning-glory, Ivy-leaved damage rating (100=total damage to plant; 0=no damage to plant); for pest or weed control at 62.5 g/ha: 62.5 g ai/ha, 100=total damage to plant, 0=no damage to plant, read-out: plant damage rating, Morningglory, Ivy-leaved; for pest or weed control at 250 g/ha: 250 g ai/ha, read-out: Morningglory, Ivy-leaved damage rating (100=total damage to plant; 0=no damage to plant)
# Procedure, shortened: as §1
# corn (Zea mays) [5] = assay: Test G Pre-Emergence Protocol; conditions: Zea mays, pre-emergence, 312 h, evaluated after 13 days; for plant injury at 15.625 g/ha: 15.625 g ai/ha; for plant injury at 15.625 g/ha / plant injury at 250 g/ha: read-out: Corn damage rating (100=total damage to plant; 0=no damage to plant); for plant injury at 62.5 g/ha: 62.5 g ai/ha, 100=total damage to plant, 0=no damage to plant, read-out: plant damage rating, Corn; for plant injury at 250 g/ha: 250 g ai/ha
# Procedure, shortened: as §1
# [6] = tested on: redroot pigweed (Amaranthus retroflexus); assay: Test G Pre-Emergence Protocol; conditions: Amaranthus retroflexus, pre-emergence, 312 h, evaluated after 13 days; for pest or weed control at 15.625 g/ha: 15.625 g ai/ha; for pest or weed control at 15.625 g/ha / pest or weed control at 250 g/ha: read-out: Pigweed, Redroot damage rating (100=total damage to plant; 0=no damage to plant); for pest or weed control at 62.5 g/ha: 62.5 g ai/ha, 100=total damage to plant, 0=no damage to plant, read-out: plant damage rating, Pigweed, Redroot; for pest or weed control at 250 g/ha: 250 g ai/ha
# Procedure, shortened: as §1
# [7] = tested on: barnyardgrass (Echinochloa crus-galli); assay: Test G Post-Emergence Protocol; conditions: Echinochloa crus-galli, post-emergence, 312 h; for pest or weed control at 15.625 g/ha: 15.625 g ai/ha, evaluated after 13 days (100=total damage to plant; 0=no damage to plant), read-out: Barnyardgrass damage rating; for pest or weed control at 62.5 g/ha: 62.5 g ai/ha, read-out: Barnyardgrass damage rating (100=total damage to plant; 0=no damage to plant); for pest or weed control at 62.5 g/ha / pest or weed control at 250 g/ha: evaluated after 13 days; for pest or weed control at 250 g/ha: 250 g ai/ha, read-out: damage to plant, Barnyardgrass (100=total damage to plant; 0=no damage to plant)
# Procedure, shortened: (§2)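 Scores run 0 (no damage) to 100 (total damage) and were taken 13 days after spraying. Plants had been raised in pots for 8 days under glasshouse control (24/16 °C, 14 h photoperiod, 65% humidity) and then treated at 15.625, 62.5 or 250 g/ha.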
# [8] = tested on: giant foxtail (Setaria faberi); assay: Test G Post-Emergence Protocol; conditions: Setaria faberi, post-emergence, 312 h; for pest or weed control at 15.625 g/ha: 15.625 g ai/ha, evaluated after 13 days (100=total damage to plant; 0=no damage to plant), read-out: Foxtail, Giant damage rating; for pest or weed control at 62.5 g/ha: 62.5 g ai/ha, read-out: Foxtail, Giant damage rating (100=total damage to plant; 0=no damage to plant); for pest or weed control at 62.5 g/ha / pest or weed control at 250 g/ha: evaluated after 13 days; for pest or weed control at 250 g/ha: 250 g ai/ha, read-out: damage to plant, Foxtail, Giant (100=total damage to plant; 0=no damage to plant)
# Procedure, shortened: as §2
# [9] = tested on: velvetleaf (Abutilon theophrasti); assay: Test G Post-Emergence Protocol; conditions: Abutilon theophrasti, post-emergence, 312 h; for pest or weed control at 15.625 g/ha: 15.625 g ai/ha, evaluated after 13 days (100=total damage to plant; 0=no damage to plant), read-out: Velvetleaf damage rating; for pest or weed control at 62.5 g/ha: 62.5 g ai/ha, read-out: Velvetleaf damage rating (100=total damage to plant; 0=no damage to plant); for pest or weed control at 62.5 g/ha / pest or weed control at 250 g/ha: evaluated after 13 days; for pest or weed control at 250 g/ha: 250 g ai/ha, read-out: damage to plant, Velvetleaf (100=total damage to plant; 0=no damage to plant)
# Procedure, shortened: as §2
# [10] = tested on: ivy-leaved morning glory (Ipomoea hederacea); assay: Test G Post-Emergence Protocol; conditions: Ipomoea, post-emergence, 312 h; for pest or weed control at 15.625 g/ha: 15.625 g ai/ha, evaluated after 13 days (100=total damage to plant; 0=no damage to plant), read-out: Morningglory, Ivy-leaved damage rating; for pest or weed control at 62.5 g/ha: 62.5 g ai/ha, read-out: Morningglory, Ivy-leaved damage rating (100=total damage to plant; 0=no damage to plant); for pest or weed control at 62.5 g/ha / pest or weed control at 250 g/ha: evaluated after 13 days; for pest or weed control at 250 g/ha: 250 g ai/ha, read-out: damage to plant, Morningglory, Ivy-leaved (100=total damage to plant; 0=no damage to plant)
# Procedure, shortened: as §2
# corn (Zea mays) [11] = assay: Test G Post-Emergence Protocol; conditions: Zea mays, post-emergence, 312 h; for plant injury at 15.625 g/ha: 15.625 g ai/ha, evaluated after 13 days (100=total damage to plant; 0=no damage to plant), read-out: Corn damage rating; for plant injury at 62.5 g/ha: 62.5 g ai/ha, read-out: Corn damage rating (100=total damage to plant; 0=no damage to plant); for plant injury at 62.5 g/ha / plant injury at 250 g/ha: evaluated after 13 days; for plant injury at 250 g/ha: 250 g ai/ha, read-out: damage to plant, Corn (100=total damage to plant; 0=no damage to plant)
# Procedure, shortened: as §2
# [12] = tested on: redroot pigweed (Amaranthus retroflexus); assay: Test G Post-Emergence Protocol; conditions: Amaranthus retroflexus, post-emergence, 312 h; for pest or weed control at 15.625 g/ha: 15.625 g ai/ha, evaluated after 13 days (100=total damage to plant; 0=no damage to plant), read-out: Pigweed, Redroot damage rating; for pest or weed control at 62.5 g/ha: 62.5 g ai/ha, read-out: Pigweed, Redroot damage rating (100=total damage to plant; 0=no damage to plant); for pest or weed control at 62.5 g/ha / pest or weed control at 250 g/ha: evaluated after 13 days; for pest or weed control at 250 g/ha: 250 g ai/ha, read-out: damage to plant, Pigweed, Redroot (100=total damage to plant; 0=no damage to plant)
# Procedure, shortened: as §2
smiles,measurement,setting,value
COc1nccc(NC(=O)[C@@H]2C(=O)N(C)C[C@H]2c2ccc(C(F)(F)F)cc2)n1 (racemic) [Compound 1640],pest or weed control at 15.625 g/ha,[1],0%
same,pest or weed control at 62.5 g/ha,[1],0%
same,pest or weed control at 250 g/ha,[1],0%
same,pest or weed control at 15.625 g/ha,[2],0%
same,pest or weed control at 62.5 g/ha,[2],0%
same,pest or weed control at 250 g/ha,[2],0%
same,pest or weed control at 15.625 g/ha,[3],0%
same,pest or weed control at 62.5 g/ha,[3],0%
same,pest or weed control at 250 g/ha,[3],0%
same,pest or weed control at 15.625 g/ha,[4],0%
same,pest or weed control at 62.5 g/ha,[4],0%
same,pest or weed control at 250 g/ha,[4],0%
same,plant injury at 15.625 g/ha,corn (Zea mays) [5],0%
same,plant injury at 62.5 g/ha,corn (Zea mays) [5],0%
same,plant injury at 250 g/ha,corn (Zea mays) [5],0%
same,pest or weed control at 15.625 g/ha,[6],0%
same,pest or weed control at 62.5 g/ha,[6],0%
same,pest or weed control at 250 g/ha,[6],0%
same,pest or weed control at 15.625 g/ha,[7],0%
same,pest or weed control at 62.5 g/ha,[7],0%
same,pest or weed control at 250 g/ha,[7],0%
same,pest or weed control at 15.625 g/ha,[8],0%
same,pest or weed control at 62.5 g/ha,[8],0%
same,pest or weed control at 250 g/ha,[8],0%
same,pest or weed control at 15.625 g/ha,[9],0%
same,pest or weed control at 62.5 g/ha,[9],0%
same,pest or weed control at 250 g/ha,[9],0%
same,pest or weed control at 15.625 g/ha,[10],0%
same,pest or weed control at 62.5 g/ha,[10],0%
same,pest or weed control at 250 g/ha,[10],0%
same,plant injury at 15.625 g/ha,corn (Zea mays) [11],0%
same,plant injury at 62.5 g/ha,corn (Zea mays) [11],0%
same,plant injury at 250 g/ha,corn (Zea mays) [11],0%
same,pest or weed control at 15.625 g/ha,[12],0%
same,pest or weed control at 62.5 g/ha,[12],0%
same,pest or weed control at 250 g/ha,[12],0%
CN1C[C@@H](c2ccc(C(F)(F)F)cc2)[C@H](C(=O)Nc2cccc(Cl)c2C#N)C1=O (racemic) [Compound 1645],pest or weed control at 15.625 g/ha,[1],0%
same,pest or weed control at 62.5 g/ha,[1],40%
same,pest or weed control at 250 g/ha,[1],50%
same,pest or weed control at 15.625 g/ha,[2],0%
same,pest or weed control at 62.5 g/ha,[2],30%
same,pest or weed control at 250 g/ha,[2],60%
same,pest or weed control at 15.625 g/ha,[3],0%
same,pest or weed control at 62.5 g/ha,[3],0%
same,pest or weed control at 250 g/ha,[3],10%
same,pest or weed control at 15.625 g/ha,[4],0%
same,pest or weed control at 62.5 g/ha,[4],0%
same,pest or weed control at 250 g/ha,[4],0%
same,plant injury at 15.625 g/ha,corn (Zea mays) [5],0%
same,plant injury at 62.5 g/ha,corn (Zea mays) [5],0%
same,plant injury at 250 g/ha,corn (Zea mays) [5],0%
same,pest or weed control at 15.625 g/ha,[6],0%
same,pest or weed control at 62.5 g/ha,[6],10%
same,pest or weed control at 250 g/ha,[6],10%
same,pest or weed control at 15.625 g/ha,[7],0%
same,pest or weed control at 62.5 g/ha,[7],20%
same,pest or weed control at 250 g/ha,[7],70%
same,pest or weed control at 15.625 g/ha,[8],0%
same,pest or weed control at 62.5 g/ha,[8],70%
same,pest or weed control at 250 g/ha,[8],80%
same,pest or weed control at 15.625 g/ha,[9],0%
same,pest or weed control at 62.5 g/ha,[9],0%
same,pest or weed control at 250 g/ha,[9],0%
same,pest or weed control at 15.625 g/ha,[10],0%
same,pest or weed control at 62.5 g/ha,[10],0%
same,pest or weed control at 250 g/ha,[10],0%
same,plant injury at 15.625 g/ha,corn (Zea mays) [11],0%
same,plant injury at 62.5 g/ha,corn (Zea mays) [11],0%
same,plant injury at 250 g/ha,corn (Zea mays) [11],0%
same,pest or weed control at 15.625 g/ha,[12],0%
same,pest or weed control at 62.5 g/ha,[12],40%
same,pest or weed control at 250 g/ha,[12],40%
